Source: patent US20230103007A1, “COMBINATION THERAPY FOR TREATING ABNORMAL CELL GROWTH” (priority 2020, published 2023)

Columns and labels:
[1] = system: H2122 KRAS G12C mt NSCLC xenograft; assay: Xenograft efficacy study, H2122; format: in vivo, Balb/c nude mice; conditions: for effect on AMG-510 efficacy (change in tumor volume): in combination with AMG-510, H2122 tumor bearing mice, 10 days; for mice with tumor regression, combination with sotorasib: in combination with sotorasib, 10 days of treatment; for augmentation of tumor growth inhibition by sotorasib: 0.3 mg/kg QD in combination with sotorasib 30 mg/kg QD
Experimental: (§1) KRAS G12C mutant NSCLC H2122 and H358 tumor cells and Balb/c nude mice were used. Tumor challenge was initiated by subcutaneous inoculation of 1×10^7 tumor cell suspensions into the right flank of recipient mice. Tumor sizes (mm^3) and body weights were measured 3 times per week for the duration of the study. At the time of routine monitoring, the animals were checked for any effects of tumor growth and treatments on normal behavior such as mobility, food and water consumption (by looking only), and body weight gain/loss, eye/hair matting and any other abnormal effect.
(§2) For efficacy studies, once tumors reached an average volume of 150-200 mm^3, mice were sorted into 10 groups (n=10): vehicle 1 (5% DMSO, 10% HPCD in sterile water)+vehicle 2 (2% HPMC, 1% Tween 80 in sterile water), VS-6766 in vehicle 1 (0.3 mg/kg PO QD, 28 days)+vehicle 2, AMG-510 in vehicle 2 (30 mg/kg PO QD, 28 days)+vehicle 1, VS-6766+AMG-510, VS-4718 (0.5% CMC-Na, 0.1% Tween 80 in sterile water) (50 mg/kg PO BID, 28 days)+vehicle 2, VS-4718+VS-6766, VS-4718+AMG-510, VS-4718+AMG-510+VS-6766, trametinib (0.3 mg/kg PO QD, 28 days) (0.5% hydroxypropylmethylcellulose and 0.2% Tween-80 in distilled water (pH 8.0))+vehicle 2, and trametinib+AMG-510. Mice were euthanized when tumor volumes>2,000 mm^3.

[2] = system: H358 KRAS G12C mt NSCLC xenograft; assay: Xenograft efficacy study, H358; format: in vivo, Balb/c nude mice; conditions: in combination with G12Ci (AMG-510); 21 days
Experimental: as §1, §2

[3] = system: KRAS G12C mt NSCLC and colorectal cancer cell lines (H2122, H358, H2030, H1373, SW837, SW1463); assay: 3D proliferation assay in vitro (CellTiter-Glo 3D, synergy analysis); format: cell-based; conditions: 7 days treatment, panel of KRAS G12C mt NSCLC and CRC cell lines, Loewe model
Experimental: KRAS G12C mutant NSCLC (H2122, H358, H2030, H1373) and colorectal cancer (CRC; SW837 and SW1463) were used. Briefly, 96-well plates were coated with 50 μL of Matrigel (100%) and incubated at 37° C. and 5% CO2 for 30 min in order for the Matrigel to solidify. Cells were seeded in 100 μL of 2% Matrigel containing medium. After an incubate overnight (17-22 hours) cells were treated with VS-6766 +/−G12C inhibitor +/−Defactinib for 7 days. Cell viability was measured using the cell viability CellTiter-Glo 3D assay. Combination effects were evaluated by comparing the averaged viability/inhibition to two different null reference models derived from the single agent activities. Bliss, Loewe and Highest Single Agent synergy analysis were performed to determine synergy scores.

[4] = system: RAS pathway signaling (pMEK, pERK, p-p90RSK); assay: Western blot of RAS pathway signaling in KRAS G12C mt NSCLC cell lines; format: cell-based
Experimental: KRAS G12C mutant NSCLC cells (H2122, H358, H1373 and SW1573) were seeded in 10-cm dishes. After an incubate overnight (17-22hrs) cells were treated with 100 nM VS-6766 +/−100 nM G12C inhibitor. 4 and 48 hours post compound treatment, cells were collected, and cell lysates prepared using RIPA buffer containing protease inhibitors. Western blot assays were run using antibodies for pMEK, MEK, pERK, ERK, p-p90RSK, p90RSK and actin.

[5] = system: pMEK and pERK in H2122 KRAS G12C NSCLC xenograft tumors; assay: Pharmacodynamic study in H2122 xenograft tumors (pMEK, pERK western blot); format: in vivo, Balb/c nude mice; conditions: VS-6766 0.3 mg/kg + AMG-510 30 mg/kg, oral, daily for 5 days; tumors harvested 2, 8 and 24 hours after final dose
Experimental: as §1

[6] = 100 nM VS-6766 + 100 nM AMG-510, 4 and 48 hours
[7] = 100 nM VS-6766 + 100 nM MRTX849, 4 and 48 hours

SMILES	effect on AMG-510 efficacy (change in tumor volume) [1]	mice with tumor regression, combination with sotorasib [1]	effect on efficacy of G12Ci in H358 xenograft model [2]	synergy in reducing viability, combination with adagrasib [3]	synergy in reducing viability, combination with sotorasib [3]	depth and duration of inhibition of MEK/ERK signaling, added to AMG-510, relative to G12C inhibitor alone [4, 6]	pERK inhibition by combination with AMG-510 versus AMG-510 alone [4, 6]	depth and duration of inhibition of MEK/ERK signaling, added to MRTX849, relative to G12C inhibitor alone [4, 7]	pERK inhibition by combination with MRTX849 versus MRTX849 alone [4, 7]	suppression of RAS pathway signaling (pMEK, pERK, p-p90RSK) as a single agent ([4]; single agent, 100 nM, 4 and 48 hours, KRAS-G12C NSCLC cell lines)	inhibition of pMEK and pERK in tumors, combination with sotorasib relative to sotorasib alone [5]	augmentation of tumor growth inhibition by sotorasib [1]	mice with tumor reductions of >35%, triple combination ([1]; triple combination of VS-6766, sotorasib and a FAK inhibitor)
CNC(=O)c1ccccc1Nc1cc(Nc2ccc(N3CCOCC3)cc2OC)ncc1C(F)(F)F [FAK inhibitor]	potentiate	4/10	enhance	–	–	–	–	–	–	–	–	–	–
CNS(=O)(=O)Nc1nccc(Cc2c(C)c3ccc(Oc4ncccn4)cc3oc2=O)c1F [VS-6766]	potentiate	5/10	enhance	synergistic	synergistic	increases depth and duration of inhibition	better	increases depth and duration of inhibition	better	effectively suppressed	improved inhibition	augmented	10/10
CNC(=O)c1ccc(Nc2ncc(C(F)(F)F)c(NCc3nccnc3N(C)S(C)(=O)=O)n2)cc1 [defactinib]	–	–	–	synergistic	synergistic	–	–	–	–	–	–	–	–
CC(=O)Nc1cccc(-n2c(=O)n(C3CC3)c(=O)c3c(Nc4ccc(I)cc4F)n(C)c(=O)c(C)c32)c1 [trametinib, reference compound]	–	1/10	–	–	–	–	–	–	–	–	–	much less effective	–
